Earlier results, collected in US11599023B2, “Photosensitive resin composition, organic EL element barrier rib, and organic EL element” (SHOWA DENKO K.K., priority 2018, dated 2023).
Like-named read-outs stand apart in the source and are kept apart here.

Assays:
[1] = not given; remark: listed apart in the source
[2] = Table 1, at 20° C. and 1 atm, cited in Scifinder
[3] = Table 2, of the low molecular weight organic compound (B), cited in Scifinder
[4] = at 20° C. and 1 atm, SciFinder database
[5] = Table 1, at 25° C., cited in Scifinder

## Oc1ccc(O)c(O)c1 [1,2,4-Benzenetriol]
[2]
  Molar volume: 84.7 cm^3/mol
[3]
  Molar volume: 84.7 cm^3/mol
[4]
  Molar volume: 84.7 cm^3/mol
[1]; [5]
  pKa: 9.58
[1]; [3]
  pKa: 9.58
[1]; at 25° C., SciFinder database
  pKa: 9.58

## O=C(c1ccc(O)cc1)c1ccc(O)c(O)c1O [2,3,4,4′-Tetrahydroxybenzophenone, 2,3,4,4′-Tetrahydroxybenzophenone, reference compound]
[2]
  Molar volume: 161.2 cm^3/mol
[3]
  Molar volume: 161.2 cm^3/mol
[1]; [5]
  pKa: 7.38
[1]; [3]
  pKa: 7.38

## O=C(O)c1ccc(O)c(O)c1O [2,3,4-Trihydroxybenzoic acid]
[2]
  Molar volume: 97.2 cm^3/mol
[3]
  Molar volume: 97.2 cm^3/mol
[4]
  Molar volume: 97.2 cm^3/mol
[1]; [5]
  pKa: 3.30
[1]; [3]
  pKa: 3.30
[1]; at 25° C., SciFinder database
  pKa: 3.3

## O=C(O)c1cccc(O)c1O [2,3-Dihydroxybenzoic acid]
[2]
  Molar volume: 98.8 cm^3/mol
[3]
  Molar volume: 98.8 cm^3/mol
[4]
  Molar volume: 98.8 cm^3/mol
[1]; [5]
  pKa: 2.96
[1]; [3]
  pKa: 2.96
[1]; at 25° C., SciFinder database
  pKa: 2.96

## O=C(O)c1ccc(O)cc1O [2,4-Dihydroxybenzoic acid]
[2]
  Molar volume: 98.8 cm^3/mol
[3]
  Molar volume: 98.8 cm^3/mol
[4]
  Molar volume: 98.8 cm^3/mol
[1]; [5]
  pKa: 3.32
[1]; [3]
  pKa: 3.32
[1]; at 25° C., SciFinder database
  pKa: 3.32

## O=C(O)c1cc(O)ccc1O [2,5-Dihydroxybenzoic acid]
[2]
  Molar volume: 98.8 cm^3/mol
[3]
  Molar volume: 98.8 cm^3/mol
[4]
  Molar volume: 98.8 cm^3/mol

## O=C(O)c1cc(O)cc(O)c1 [3,5-Dihydroxybenzoic acid]
[2]
  Molar volume: 98.8 cm^3/mol
[3]
  Molar volume: 98.8 cm^3/mol
[4]
  Molar volume: 98.8 cm^3/mol
[1]; [5]
  pKa: 3.96
[1]; [3]
  pKa: 3.96
[1]; at 25° C., SciFinder database
  pKa: 3.96

## O=C(O)c1cc(O)c(O)c(O)c1 [Gallic acid]
[2]
  Molar volume: 97.2 cm^3/mol
[3]
  Molar volume: 97.2 cm^3/mol
[4]
  Molar volume: 97.2 cm^3/mol

## O=C(O)c1cccc(C(=O)O)c1C(=O)O [Hemimellitic acid]
[2]
  Molar volume: 127.0 cm^3/mol
[3]
  Molar volume: 127.0 cm^3/mol
[4]
  Molar volume: 127 cm^3/mol

## Oc1ccc(O)c2c(O)c3ccccc3c(O)c12 [Leucoquinizarin, reference compound]
[2]
  Molar volume: 151.3 cm^3/mol
[3]
  Molar volume: 151.3 cm^3/mol
[1]; [5]
  pKa: 8.11
[1]; [3]
  pKa: 8.11

## O=C1OC(c2ccc(O)cc2)(c2ccc(O)cc2)c2ccccc21 [Phenolphthalein, reference compound]
[2]
  Molar volume: 229.7 cm^3/mol
[3]
  Molar volume: 229.7 cm^3/mol
[1]; [5]
  pKa: 9.23
[1]; [3]
  pKa: 9.23

## O=C(O)c1ccccc1C(c1ccc(O)cc1)c1ccc(O)cc1 [Phenolphthalin, reference compound]
[2]
  Molar volume: 242.0 cm^3/mol
[3]
  Molar volume: 242.0 cm^3/mol
[1]; [5]
  pKa: 3.96
[1]; [3]
  pKa: 3.96

## Oc1cc(O)cc(O)c1 [Phloroglucinol]
[2]
  Molar volume: 84.7 cm^3/mol
[3]
  Molar volume: 84.7 cm^3/mol
[4]
  Molar volume: 84.7 cm^3/mol
[1]; [5]
  pKa: 9.06
[1]; [3]
  pKa: 9.06
[1]; at 25° C., SciFinder database
  pKa: 9.06

## CCCOC(=O)c1cc(O)c(O)c(O)c1 [Propyl gallate, reference compound]
[2]
  Molar volume: 155.6 cm^3/mol
[3]
  Molar volume: 155.6 cm^3/mol

## Oc1cccc(O)c1O [Pyrogallol]
[2]
  Molar volume: 84.7 cm^3/mol
[3]
  Molar volume: 84.7 cm^3/mol
[4]
  Molar volume: 84.7 cm^3/mol

## O=C(O)c1cc(C(=O)O)c(C(=O)O)cc1C(=O)O [Pyromellitic acid, reference compound]
[2]
  Molar volume: 139.5 cm^3/mol
[3]
  Molar volume: 139.5 cm^3/mol

## Oc1ccccc1O [catechol]
[4]
  Molar volume: 86.2 cm^3/mol

## Oc1ccc(O)cc1 [hydroquinone]
[4]
  Molar volume: 86.2 cm^3/mol
[1]; at 25° C., SciFinder database
  pKa: 9.58

## O=C(O)c1cccc(C(=O)O)c1 [isophthalic acid]
[4]
  Molar volume: 114.4 cm^3/mol

## O=C(O)c1ccccc1C(=O)O [phthalic acid]
[4]
  Molar volume: 114.4 cm^3/mol

## Oc1cccc(O)c1 [resorcinol]
[4]
  Molar volume: 86.2 cm^3/mol
[1]; at 25° C., SciFinder database
  pKa: 9.45

## O=C(O)c1ccc(C(=O)O)cc1 [terephthalic acid]
[4]
  Molar volume: 114.4 cm^3/mol

## O=C(O)c1ccc(C(=O)O)c(C(=O)O)c1 [trimellitic acid]
[4]
  Molar volume: 127.0 cm^3/mol

## O=C(O)c1cc(C(=O)O)cc(C(=O)O)c1 [trimesic acid]
[4]
  Molar volume: 127.0 cm^3/mol
